# Test: in vitro
# Conditions: human, hela cells, % viability
row,SMILES,"viability at 28.5 h, 10 µM"
1,O=c1c2cc(F)ccc2nc2n1CCN(Cc1ccccc1)CC2 [CBK285300],94.5%
2,Cc1ccc2c(c1)c(=O)cc(C(F)(F)F)n2C[C@H]1CCCN1 [CBK285303],36.2%
3,CCCC(=O)N1CCC(c2cc(C(F)F)c3c(C)noc3n2)CC1 [CBK285304],102%
4,Cc1noc2nc(C3CCN(C(=O)C(C)C)CC3)cc(C(F)F)c12 [CBK285305],79.9%
5,Fc1ccc(-c2[nH]c3ncccc3c2CN2CCOCC2)cc1 [CBK285310],111%
6,CC(C)c1[nH]c2ncccc2c1CN1CCSCC1 [CBK285312],94%
7,c1cnc2[nH]c(C3CC3)c(CN3CCN4CCCCC4C3)c2c1 (stereo not drawn) [CBK285313],81.5%
8,Cc1cc2c(cc1C)OC1(C=C2)CCN(C(=O)N2CCOCC2)CC1 [CBK285314],94.4%
9,Cc1ccc(S(=O)(=O)N2C[C@H]3C[C@H](NC(=O)C(C)C)[C@H]3C2)cc1 [CBK285317],107%
10,Cc1ccc(S(=O)(=O)N2C[C@H]3C[C@H](NC(=O)C4CC4C)[C@H]3C2)cc1 (stereo partly drawn) [CBK285318],108%
11,O=C1NCC2(CCN(Cc3ccccc3)CC2)Oc2ccccc21 [CBK285323],91.8%
12,Cn1ncc2c1CCCN(C(=O)COc1ccccc1F)C2 [CBK285324],101%
13,CCOc1ccc(CC(=O)N2CCCc3c(cnn3C)C2)cc1 [CBK285325],101%
14,Cc1ccc(C(=O)N2CCC3(CC2)CNC(=O)c2ccccc2O3)o1 [CBK285328],88.3%
15,COC(=O)C1(Cc2cc(-c3ccc(F)cc3)no2)CCOCC1 [CBK285329],79.3%
16,COC(=O)C1(Cc2cc(-c3cccc(F)c3)no2)CCOCC1 [CBK285330],95.8%
17,COc1ccc(-c2[nH]c3ncccc3c2CN2CCCC2)cc1 [CBK285331],69.4%
18,CN1CCN(Cc2c(C3CCCC3)[nH]c3ncccc23)CC1 [CBK285336],88.6%
19,COc1ccc(-c2[nH]c3ncccc3c2CN2CCSCC2)cc1 [CBK285338],91.9%
20,CCN1CCN(Cc2c(C(C)C)[nH]c3ncccc23)CC1 [CBK285343],83.6%
21,CC1CN(Cc2c(C(F)(F)F)[nH]c3ncccc23)CC(C)O1 (stereo not drawn) [CBK285344],88.5%
22,O=C1NCCCC12CCN(Cc1ccc(F)cc1)CC2 [CBK285345],83.1%
23,O=C(NCc1ccccn1)c1ccc(-n2ccnc2)c(-n2cccc2)c1 [CBK285347],80.8%

row,SMILES,"viability at 28.5 h, 10 µM"
1,COCC(=O)NC1CCN(CC2(c3ccc(C)cc3)CC2)CC1 [CBK285350],104%
2,O=C(NC1CCN(CC2(c3ccccc3)CC2)CC1)c1cc[nH]n1 [CBK285351],88.4%
3,O=C(NC1CCN(CC2(c3ccccc3)CC2)CC1)C1CCOCC1 [CBK285352],94.4%
4,CC1CC1C(=O)NC1CCN(CC2(c3ccccc3)CC2)CC1 (stereo not drawn) [CBK285353],83.2%
5,CC(C)N1CCN(Cc2c(C(F)(F)F)[nH]c3ncccc23)CC1 [CBK285354],88.3%
6,COc1ccc(C2(CN3CCC(NC(C)=O)CC3)CC2)cc1 [CBK285357],101%
7,COc1ccc(C2(CN3CCC(NC(=O)C4CC4)CC3)CC2)cc1 [CBK285358],101%
8,Cc1ccc(C2(CN3CCC(NC(=O)C4CC4)CC3)CC2)cc1 [CBK285359],83.9%
9,CCN1CCN(Cc2c(C(F)(F)F)[nH]c3ncccc23)CC1 [CBK285362],95.2%
10,O=C(c1ccc(-n2ccnc2)c(-n2cccc2)c1)N1CCSCC1 [CBK285364],97.4%
11,O=C(NC1CCCCC1)c1ccc(-n2ccnc2)c(-n2cccc2)c1 [CBK285365],107%
12,O=C(NCc1cccs1)c1ccc(-n2ccnc2)c(-n2cccc2)c1 [CBK285366],102%
13,COCCNC(=O)c1ccc(-n2ccnc2)c(-n2cccc2)c1 [CBK285369],85.5%
14,CC1CCCN(C(=O)c2ccc(-n3ccnc3)c(-n3cccc3)c2)C1 (stereo not drawn) [CBK285370],95.1%
15,COc1ccc(-c2cc3cccnc3n2CC(=O)N2CCCC2)cc1 [CBK285379],84.3%
16,COc1ccc(-c2cc3cccnc3n2CC(=O)NC(C)C)cc1 [CBK285380],100%
17,COc1ccc(-c2cc3cccnc3n2CC(=O)NC(C)(C)C)cc1 [CBK285381],115%
18,COCCCNC(=O)Cn1c(-c2ccc(F)cc2)cc2cccnc21 [CBK285385],88.5%
19,Cc1nccn1CC1(O)CCN(C(=O)C(C)c2ccccc2)CC1 (stereo not drawn) [CBK285388],104%
20,Cc1nc(CC(=O)NC(Cc2ccsc2)c2cccnc2)cs1 (stereo not drawn) [CBK285389],110%
21,Cc1csc(C(Cc2ccsc2)NC(=O)CCn2ccnc2)n1 (stereo not drawn) [CBK285391],91.2%
22,Cc1nn(C)cc1C(=O)NC(Cc1ccsc1)c1cccnc1 (stereo not drawn) [CBK285392],109%
23,O=C(CCn1cccn1)NC(Cc1ccsc1)c1cccnc1 (stereo not drawn) [CBK285393],101%

row,SMILES,"viability at 28.5 h, 10 µM"
1,COc1ccc(-c2cc(C3CCCCCN3)no2)cc1 (stereo not drawn) [CBK285399],96.5%
2,Cc1cc(C[C@@H]2COC[C@H]2NCc2ccc(Cl)c(Cl)c2)on1 [CBK285400],88%
3,CC(=O)Nc1ccc(CN2CCCCCC2c2cc(C)no2)cc1 (stereo not drawn) [CBK285415],101%
4,COc1cccc(C(=O)N2CCCC(c3cc4cnccc4[nH]3)C2)c1 (stereo not drawn) [CBK285417],104%
5,Cc1cc(CN2CC3CCCN3C[C@@H]2C)c(C)n1CC1CCCO1 (stereo partly drawn) [CBK285419],82%
6,CSCC[C@@H]1CN2CCC[C@H]2CN1Cc1cnc(C)n1C [CBK285423],109%
7,C[C@@H]1CN2CCCC2CN1CCc1ccccc1 (stereo partly drawn) [CBK285424],85.4%
8,C[C@H]1CN2C[C@H](O)CC2CN1Cc1cn(C)c2ccc(F)cc12 (stereo partly drawn) [CBK285428],97.6%
9,OCC[C@H]1CN2CCCC2CN1Cc1cccc(Cl)c1Cl (stereo partly drawn) [CBK285429],86.6%
10,O=C(C1CCC1)N1CCC(c2nc(C3CCCC3)no2)C1 (stereo not drawn) [CBK285434],88.1%
11,CCOc1ccccc1CN1CC2CCCN2C[C@@H]1C (stereo partly drawn) [CBK285435],94.7%
12,C[C@H]1CN2C[C@H](O)CC2CN1Cc1ccc(Br)s1 (stereo partly drawn) [CBK285439],96.1%
13,C[C@H]1CN2CCCC2CN1Cc1ccc2c(c1)CCO2 (stereo partly drawn) [CBK285443],104%
14,Cc1cc(C2CCCCCN2C(=O)c2ccc(F)cc2)on1 (stereo not drawn) [CBK285447],106%
15,C[C@H]1CN2CCCC2CN1Cc1cccc(F)c1F (stereo partly drawn) [CBK285454],111%
16,O[C@@]1(c2ccccn2)CC[C@H]2CN(Cc3ccc(F)c(F)c3)C[C@H]21 [CBK285456],107%
17,CC(=O)NC(c1ccccn1)C1CCN(Cc2cccc(F)c2)CC1 (stereo not drawn) [CBK285461],104%
18,Cc1cc(C[C@@H]2COC[C@H]2NCc2ccccc2C(F)(F)F)on1 [CBK285464],100%
19,C[C@H]1CN2C[C@H](O)CC2CN1Cc1cccn1-c1ccc(F)cc1 (stereo partly drawn) [CBK285465],97.4%
20,CCCn1cc(CN2CC3C[C@@H](O)CN3C[C@@H]2C)c2ccccc21 (stereo partly drawn) [CBK285466],104%
21,Cc1ccc(C(C)CCN2CC3CCCN3C[C@H]2C)o1 (stereo partly drawn) [CBK285467],101%
22,CCn1cc([C@H]2CN(C)C[C@@H]2N(C)C)c2ccccc21 [CBK285468],108%
23,COC(=O)[C@H]1CN(C(=O)C2CC(=O)N(C)C2)C[C@@H]1c1ccccc1F (stereo partly drawn) [CBK285470],94.7%

row,SMILES,"viability at 28.5 h, 10 µM"
1,O=C(NC1CC1)[C@@H]1C=CCN1S(=O)(=O)c1ccccc1Cl [CBK285479],103%
2,CCCc1ccc(C(=O)N2CCC(C(=O)c3cccnc3)CC2)o1 [CBK285482],101%
3,Cc1ncsc1C(=O)N1CCN(Cc2ccco2)C[C@@H]1C(C)C [CBK285486],101%
4,COc1cccc(CN2CCN(C(=O)N3CCCC3)[C@@H](C)C2)c1 [CBK285491],107%
5,O=C(C1CCCC1)N1C[C@@H]2CCCCN(CC3CC3)[C@@H]2C1 [CBK285493],104%
6,COC(=O)CN1CCCC[C@H]2CN(C(=O)C3CCC3)C[C@H]21 [CBK285496],103%
7,O=C(Cc1ccccc1)N1C[C@@H]2CCCCN(CC3CC3)[C@@H]2C1 [CBK285497],111%
8,Cc1cnccc1-c1c[nH]nc1C1CCCN1C(=O)c1ccccc1 (stereo not drawn) [CBK285499],104%
9,C=CCN1CCCC[C@H]2CN(S(=O)(=O)c3cccc(F)c3)C[C@H]21 [CBK285500],103%
10,O=S(=O)(c1ccccc1)N1C[C@@H]2CCCCN(CC3CC3)[C@@H]2C1 [CBK285501],109%
11,COc1ccc([C@H]2CN(C(C)=O)[C@@H]3CCN(CC4CC4)C[C@H]23)cc1 [CBK285502],98.1%
12,O=C(c1cccs1)N1C[C@@H]2CCCCN(C3CCOCC3)[C@@H]2C1 [CBK285503],107%
13,O=C(CN1CCCC[C@H]2CN(C(=O)c3cccs3)C[C@H]21)NC1CC1 [CBK285504],90.5%
14,Cc1cc(C)n(CCC(=O)N2C[C@@H]3CCCCN(CC4CC4)[C@@H]3C2)n1 [CBK285505],102%
15,CC(=O)N1C[C@@H]2CCCCN(CC(=O)NC3CC3)[C@@H]2C1 [CBK285508],101%
16,CC(C)N1CCCC[C@H]2CN(C(=O)C3OCCc4ccccc43)C[C@H]21 (stereo partly drawn) [CBK285511],104%
17,CS(=O)(=O)N1C[C@@H]2CCCCN(Cc3cccc(F)c3)[C@@H]2C1 [CBK285514],103%
18,CC(=O)NCC(=O)N1C[C@@H]2CCCCN(Cc3cccc(F)c3)[C@@H]2C1 [CBK285515],90.1%
19,Cc1ccc(-c2nnc(C3CCCN(C(=O)C4CC4)C3)o2)s1 (stereo not drawn) [CBK285516],83.9%
20,COC(=O)[C@H]1CCc2ccccc2N1C(=O)C1CC1 [CBK285518],78.9%
21,CN(C)C(=O)C1(Cc2ccccc2-c2cccnc2)CCN(Cc2ccccc2)CC1 [CBK285522],85.7%

# Source: publication PMC12040169 (PLOS Biology, 2025)
